The values that follow come from patent US11123329B1, “Use of angiotensin II type 2 receptor agonist” (Vicore Pharma AB, priority 2020, dated 2021).

Data set [1] has as its system SARS-CoV-2 infection.
Data set [2] has as its system AT2R. The settings on record: in particular in inflamed lung tissue; cited from earlier work.
The subject of data set [3] is ACE2. The settings on record: in particular in inflamed lung tissue; cited from earlier work.
Data set [4] deals with acute lung injury. The settings on record: model of acute lung injury; cited from earlier work.
For data set [5], the system named is E-cadherin expression. The settings on record: SAEMyoF.
Description: The effect of C21 on E-cadherin expression was studied using the human disease model BioMAP® platform (fibrosis panel) with ELISA-based protein biomarker detection in a human small airway epithelial cell plus lung fibroblast (SAEMyoF) assay (a service provided by Eurofins DiscoverX Corporation, Fremont, Calif., USA).
The mark [6] stands for this setting: end of treatment, 100 mg b.i.d. oral, 7 days on top of standard of care, n=51.

On to `CCCCOC(=O)NS(=O)(=O)c1sc(CC(C)C)cc1-c1ccc(Cn2ccnc2)cc1` [Compound C21, N-butyloxycarbonyl-3-(4-imidazol-1-ylmethylphenyl)-5-isobutylthiophene-2-sulfonamide], for which, in data set [1] (100 mg b.i.d., 7 days), the “level of circulating biomarker of inflammation CRP, versus placebo” value is reported as “no significant differences”; the “level of circulating biomarker of inflammation IL-6, versus placebo” value is “no significant differences”; the “level of circulating biomarker of inflammation TNF, versus placebo” value is listed as “no significant differences”. Also, the tolerability entry in data set [1] (100 mg b.i.d., 7 days, COVID-19 patients) is on record as “well tolerated”. Also, in data set [1] (100 mg b.i.d., 7 days, n=51), the deaths is 1, the “number of patients needing mechanical ventilation” value is listed as 1 and the “total number of reported adverse events” value worked out at 64. In addition, the “beneficial effect on need of oxygen supply versus placebo” value in data set [1] (100 mg b.i.d., 7 days, C21 n=51 vs placebo n=56) is recorded as “statistically significant at the predefined 10% level”. Further, in data set [1] (setting [6]), the “number of patients that needed oxygen supply” value amounted to 14 and the “patients that needed oxygen supply, share of group” value is reported as 27%. The “expression of AT2R” value in data set [2] is recorded as “increase the expression”. Moreover, the “expression of ACE2” value in data set [3] is “increase the expression”. Also, the “pulmonary gas exchange or other relevant beneficial clinical effects” value in data set [4] was “not to improve”. The “reduction of E-cadherin at lower concentrations” value in data set [5] (0.37, 1.1 and 3.3 μM of C21) is on record as “did not reduce E-cadherin”. Also, the “effect on E-cadherin levels” value in data set [5] (0.37-10 μM) was “dose-dependently reduced”.
